The values below are quoted from earlier work in US20160317610A1, “COMPOSITIONS AND METHODS FOR TREATING OVARIAN CANCER INCLUDING PREVENTING THE […]” (University of Southern California, priority 2013, published 2016).

SMILES strings stand for the structures.

The subject of the data set is advanced OC.

In the case of `CC(C)[C@H]1C(=O)N[C@@H](CCCN=C(N)N)C(=O)NCC(=O)N[C@@H](CC(=O)O)C(=O)N[C@H](Cc2ccccc2)C(=O)N1C` [Cilengitide, cyclo(L-Arg-Gly-L-Asp-D-Phe-N-methyl-L-Val)], the clinical efficacy result was “failed to show clinical efficacy”.
